Measurements reported in PubChem BioAssay (NCI).
Several values for one entry are separate records, joined by “and”; a condition that tells them apart may be missing. Equal values may be shown once.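 Interpolation was linear, between the two tested concentrations surrounding the appropriate level; five concentrations were tested over 48 hours in 96-well plates. GI50: concentration for 50% inhibition of growth. TGI is the concentration that stops growth completely.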

Experiments:
Assay in all cases: inhibition of tumour cell growth, NCI panel, 48 h
[1] = system: CCRF-CEM leukemia
[2] = system: MALME-3M melanoma
[3] = system: NCI-H522 lung
[4] = system: NCI-H460 lung
[5] = system: SK-MEL-28 melanoma
[6] = system: BT-549 breast
[7] = system: TK-10 renal
[8] = system: A549 NSCLC
[9] = system: MDA-MB-435
[10] = system: NCI/ADR-RES ovarian

| Compound | GI50 [1] | TGI [1] [µM] | GI50 [2] | TGI [2] | GI50 [3] | TGI [3] | GI50 [4] | TGI [4] | GI50 [5] | TGI [5] | GI50 [6] | TGI [6] | GI50 [7] | TGI [7] | GI50 [8] | TGI [8] | GI50 [9] | TGI [9] | GI50 [10] | TGI [10] |
| --- | --- | --- | --- | --- | --- | --- | --- | --- | --- | --- | --- | --- | --- | --- | --- | --- | --- | --- | --- | --- |
| COC(=O)[C@H](Cc1ccccc1)NC(=O)c1csc([C@@H](C[C@H](C(C)C)N(C)C(=O)[C@@H](NC(=O)[C@H]2CCCN2C)C2CC2)OC(C)=O)n1 | 0.166 µM | > 33.3 | 5.49 µM | > 33.3 µM | 0.0783 µM | > 33.3 µM | 0.397 µM | > 33.3 µM | 2.48 µM | > 33.3 µM | 0.248 µM | 7.85 µM | 4.18 µM | > 33.3 µM | 0.977 µM | > 33.3 µM | 0.027 µM | 0.191 µM | 8.59 µM | > 33.3 µM |
| COc1ccc2cc(-c3c(-c4ccncc4)nc(-c4ccc(S(C)=O)cc4C)n3C)ccc2c1 (configuration not stated) | > 25 µM | > 25 | 7.04 µM | > 25 µM | 10.6 µM | > 25 µM | 24.6 µM | > 25 µM | > 25 µM | > 25 µM | > 21.9 µM | > 25 µM | 7.62 µM | > 25 µM | 15.5 µM | > 25 µM | 11.2 µM | > 25 µM | 24.3 µM | > 25 µM |
| CN(C)CCCN1c2ccccc2Sc2ccc(Cl)cc21 | 7.38 µM | 24.3 | 14.9 µM and 3.04 µM | 31.5 µM and 15.8 µM | 2.74 µM and 2.79 µM | 7.16 µM and 8.9 µM | 4.72 µM and 10.8 µM | 17.1 µM and 23.8 µM | 2.03 µM and 3.65 µM | 4.69 µM and 14.4 µM | 10.9 µM and 11.2 µM | 23.5 µM and 24.4 µM | 9.64 µM and 6.76 µM | 22.3 µM and 20.3 µM | 3.31 µM and 3.37 µM | 11.3 µM and 14.1 µM | 1.94 µM and 2.21 µM | 4.04 µM and 6.09 µM | 11.9 µM and 9.23 µM | 25.1 µM and 22.4 µM |
| COc1ccc2c(c1)nc1n2C(c2ccc(F)cc2)SC1 (configuration not stated) | 25.9 µM | > 100 | 23.5 µM | 63 µM | 18.1 µM | 66.3 µM | 16.1 µM | 67.7 µM | – | – | 17.1 µM | 42.1 µM | 22.8 µM | > 100 µM | 25.4 µM | > 100 µM | 21.8 µM | 59.5 µM | 20.7 µM | 45.8 µM |
| CC[C@H](C)[C@H](NC(=O)[C@H]1CCCCN1C)C(=O)N(C)[C@H](C[C@@H](OC(C)=O)c1nc(C(=O)N[C@@H](Cc2ccccc2)C[C@H](C)C(=O)OC)cs1)C(C)C | 0.000552 µM and 0.0025 µM | 2.5 | 0.442 µM | > 25 µM | 0.00028 µM and < 0.0025 µM | 0.0135 µM and < 0.0025 µM | 0.000295 µM and 0.0025 µM | > 25 µM | > 25 µM | > 25 µM | 0.000385 µM and < 0.0025 µM | 0.0169 µM and < 0.0025 µM | 0.0254 µM | – | 0.000523 µM and 0.0025 µM | > 25 µM | < 0.0025 µM | < 0.0025 µM | 0.00772 µM | – |
| NC(N)=N/N=C/c1c(-c2ccc(Cl)c([N+](=O)[O-])c2)nc2n1CCS2 | 2.6 µM | 9.93 | – | – | 35.6 µM | > 100 µM | 11.6 µM | > 100 µM | 16.6 µM | 35.5 µM | 21.5 µM | 50.2 µM | – | – | 16.1 µM | 77.9 µM | 9.63 µM | 22.2 µM | 15.8 µM | 32.7 µM |
